According to patent US20080200422A1, “Methods for reduction of adipose tissue mass” (priority 2007, published 2008):
Entries after “also recorded” stand apart in the source; their conditions may differ.

Experiments:
[1] = system: leucine-deprived GCN2−/− mice; assay: C75 treatment of leucine-deprived GCN2−/− mice (liver steatosis, liver gene expression); type: in vivo; settings: 20 mg/kg IP, three doses over seven days
Experimental: FIG. 5. Leucine deprivation induced-liver steatosis in GCN2^−/− mice is prevented by inhibition of FAS expression. GCN2 KO (−/−) mice were fed a leucine-deprived diets for seven days and were given C75 at a dose of 20 mg/Kg body weight in 200 μl RPMI or only RPMI every other day by IP injection during this period. A. Liver histology for GCN2 KO mice. Sections from animals were stained with oil red O, magnification 40×. Lipid deposits are detected as red-stained areas. B and C. Expression of FAS mRNA (B) and FAS protein (C, top: western blot; bottom: FAS protein relative to tubulin and normalized to control diet group within same strains of mice). *Effect of with C75 treatment fed on (−) leu diet versus without C75 treatment fed on (−) leu diet or control diet in GCN2 KO mice (two-tailed student t-test; p<0.0001.). [KO: control diet (n=6); (−) leu diet (n=5); (−) leu diet+C75 (n=3)]. D and E. Expression of PPARα and ACO mRNA. *Effect of with C75 treatment versus without C75 treatment on either (−) leu diet (*a: p<0.001) or control diet group (*b: p<0.001) in GCN2 KO mice (two-tailed student t-test; p<0.0001.). [KO: control diet (n=6); (−) leu diet (n=5); (−) leu diet+C75 (n=3)].
Wild-type C57BL/6J (GCN2^+/+) mice were obtained from Jackson Laboratories (Bar Harbor, Me.). […] Food intake and body weight were recorded daily. […] Body, liver and adipose tissue weight were recorded at the time of sacrifice. […]
Total RNA was prepared from frozen liver using an RNase mini kit (Qiagen). Quantitative RT-PCR was performed using co-amplification of GAPDH as an internal control. 1 μg of RNA was reverse transcribed with random primers (Promega) and then quantitative PCR was performed with the qPCR core kit for sybergreen I (Eurogentec) by 7000 sequence detection system (Applied Biosystems). […] At a specific threshold in the linear amplification stage, the cycle differences between amplified GAPDH and cDNA of interest were used to determine the relative quantity of genes of interest. […]

liver FAS expression = settings: 24 hrs after a single IP injection (30 mg/kg body weight); cited from earlier work
GCN2−/− mice = assay: PPARα agonist WY compound in leucine-deprived GCN2−/− mice (fatty liver); type: in vivo

SMILES	FAS mRNA and protein levels in liver [1]	levels of PPARα and ACO mRNA in liver [1]	liver steatosis [1]	liver FAS expression (liver FAS expression)	development of fatty liver (GCN2−/− mice)
C=C1C(=O)OC(CCCCCCCC)C1C(=O)O (centres unmarked) [C75]	repressed	reduced	prevented	inhibit FAS expression significantly; also recorded: significant reductions	
Cc1cccc(Nc2cc(Cl)nc(SCC(=O)O)n2)c1C [WY compound]					not able to prevent
